Results from patent US20240131155A1, “T CELLS FOR USE IN THERAPY” (Erasmus University Medical Center Rotterdam, priority 2021, published 2024).
Peptide text beside a SMILES is read from it.

Columns and labels:
CD8+ T cells [1] = experiment: peptide:MHC multimer/tetramer staining of enriched T cells (flow cytometry); type: cell-based, human; conditions: for pMHC staining % pMHC+ CD8+ in CD3+: Table 4, enriched T cells after enrichment cycles
Procedure: (§1) Enrichment of epitope-specific CD8 T cells was performed according to the protocol described by Butler et al., Clin Cancer Res.;13(6):1857-1867 (2007), doi:10.1158/1078-0432, but included the following amendments. CD8+ T lymphocytes were collected from PBMCs by magnetic-activated cell sorting (MACS) according to the CD8 isolation kit (Miltenyi Biotec). CD8+ T cells with >95% purity were subsequently cultured in T cell medium supplemented with IL-2 (36 IU/mL; but no gentamycin) for 1 day, after which expansion cycles started. K562ABC cells (kindly provided by prof. Bruce Levine, University of Pennsylvania, PA) were loaded with 10 μg/ml ROPN1 and/or ROPN1B peptide and incubated for 5 h at RT in serum-free medium, after which cells were washed and fixed with 0,1% paraformaldehyde. After washing, K562ABC cells were suspended at 0.1×10^6/mL and co-cultured with T cells in a 1:20 ratio. IL-2 (36 IU/mL) and IL-15 ([…]) were added at days 1 and 3 days after start of co-culture, and after 6 days, T cells were counted, suspended at 2×10^6/mL and rested for 1 day, after which the next cycle commenced (this schedule continued up to 4 or 5 cycles). Following 4 and 5 cycles, T cells were stained with pMHC multimers (HLA*0201/MLN, Immudex, Copenhagen, Denmark). pMHC-PE were pre-incubated at RT for 10 min followed by incubation with 7AAD, anti-CD3-FITC and anti-CD8-APC for 20 min. Cells were fixed with 1% paraformaldehyde and TCR expression was measured with flow cytometry and analyzed using FlowJoX software. FIG. 4A schematically depicts the procedure to enrich epitope-specific T cells, and obtainthe corresponding TCR genes.
Following enrichment, T cells were tested for ROPN1 and/or ROPN1B epitope-specific IFNY production. To this end, T2 cells (1×10^6/mL) were loaded with peptide (20 ng/mL) for 30 min, after which T cells (1×10^5) were cultured in a 1:1 ratio with T2 cells in a round bottom 96-wells plate for 18 h. Supernatant was collected and IFN-γ production was measured with an Enzyme-linked immunosorbent assay (ELISA, BioLegend) according to the manufacturer's protocol (FIG. 9A). T2 cells loaded with an irrelevant peptide were included as a negative control. T cell IFNg production was considered epitope-specific in case levels exceeded 200 pg/ml, and levels were minimally twice as high as for irrelevant peptide (see for full listing of criteria, FIG. 8). T cells that fulfilled these criteria were stained with peptide:MHC (pMHC) tetramers to determine the frequency of epitope-specific T cells. Empty Loadable HLA Tetramers (5 μL, Tetramer shop, Kongens Lyngby, Denmark) were incubated with 0.5 μL peptide (200 μM) for 30 min on ice. Complexes of pMHC were centrifuged (3300 g, 5 min) and incubated with 0.1×10^6 T cells for 15 min at 37° C. in the dark. Next, an antibody cocktail containing CD3-FITC (1:30, BD) and CD8-APC (1:300, eBiosciences) was added and incubated for an additional 30 min at 4° C. in the dark. Finally, T cells were washed twice and fixed with 1% paraformaldehyde (PFA), after which events were acquired with FACSCelesta (BD) and analyzed using FlowJoX software.

CD8+ T cells [2] = experiment: Enrichment of epitope-specific CD8 T cells from healthy donors, epitope-specific IFNg production (ELISA); type: cell-based, human; conditions: positive co-cultures / co-cultures tested
Procedure: as §1
Enriched T cells were tested for ROPN1 and/or ROPN1B epitope-specific IFNY production. To this end, T2 cells (4×10^6/mL) were loaded with peptide (20 ng/mL) for 30 min. T cells (2×10^5) were cultured in a 1:1 ratio with T2 cells in a round bottom 96-wells plate, and the next day supernatant was collected and IFN-γ production was measured with an Enzyme-linked immunosorbent assay (ELISA, Invitrogen) according to manufacturer's protocol (FIG. 4B). T2 cells without peptide were included as a negative control; and staphylococcal enterotoxin B (0.1 μg, Sigma) was used as a positive control.
Enrichment of epitope-specific T cells was performed by co-culturing naïve T cells with CD11c-positive cells that were loaded with peptide. PBMCs were passed through a cell strainer (70 μm) and used for the isolation of naïve T cells and CD11c cells. To isolate CD11c-positive cells (typically dendritic cells, DC), PBMCs were stained for 10 mM at 4° C. with Fc block (10 μL/10^7 PBMCs, BD Pharmingen, Vianen, the Netherlands), after which cells were stained with CD11c-PE antibody (10 μL/10^7 PBMCs, BD Pharmingen) for 30 mM at 4° C., washed, and incubated with PE beads (10 μL/10^7 PBMCs, Miltenyi Biotech, Bergisch Gladbach, Germany) for another […] at 4° C. After washing, cells were dissolved in magnetic-activated cell sorting (MACS) buffer and passed through a MACS LS column (Miltenyi Biotec) to positively select CD11c cells. After selection, CD11c cells were irradiated with 30 Gy, and cultured overnight in a 24-wells plate (1×10^6/mL) in RPMI medium supplemented with 1% human serum (Sanquin), 1% antibiotics, […] L-glutamine, a DC maturation cocktail (a mixture of GM-CSF (10 ng/mL, ImmunoTools, Germany), IL-4 (10 ng/mL, ImmunoTools), LPS (100 ng/mL, Invitrogen, Goteborg, Sweden) and IFNY (10 ng/mL, Preprotech, London, United Kingdom)), as well as peptide (10 pg/mL). Naïve T cells were isolated with use of the Naïve T Cell isolation kit (Miltenyi Biotec) according to the manufacturer's protocol, and suspended in RPMI medium supplemented with 5% human serum (Sanquin), 1% antibiotics, […] L-glutamine and IL-7 (5 ng/mL, BD Pharmingen). The run-through of the naïve T cell selection was frozen down and used for re-stimulation of epitope-specific T cells. […]

[3] = Table 2 (Example 1), healthy donor T cells

| Compound | pMHC staining % pMHC+ CD8+ in CD3+ (CD8+ T cells [1]) [%] | enriched T cells binding MLN/HLA-A2 complexes (CD8+ T cells [1]; after 4 cycles of co-culture with epitope-loaded aAPC) [%] | enriched T cells binding MLN/HLA-A2 complexes (CD8+ T cells [1]; after 5 cycles of co-culture with epitope-loaded aAPC) [%] | T cell responses observed (IFNg) against epitope (CD8+ T cells [2]; [3]) | T cell responses observed (IFNg) against epitope (CD8+ T cells [2]; Table 4) |
| --- | --- | --- | --- | --- | --- |
| CC[C@H](C)[C@H](NC(=O)[C@H](Cc1ccc(O)cc1)NC(=O)[C@H](CC(N)=O)NC(=O)[C@H](CC(C)C)NC(=O)[C@@H](N)CCSC)C(=O)N[C@@H](CCC(=O)O)C(=O)N[C@@H](CCC(N)=O)C(=O)N[C@@H](CCC(=O)O)C(=O)N[C@H](C(=O)O)C(C)C (H-MLNYIEQEV-OH; N-terminus and C-terminus assumed) | 13.3 | 20 | 62 | 1/3 co-cultures | 1/3 co-cultures |
| CSCC[C@H](NC(=O)[C@H](CCC(N)=O)NC(=O)[C@H](C)N)C(=O)N[C@@H](Cc1c[nH]c2ccccc12)C(=O)N[C@@H](CCCCN)C(=O)N[C@H](C(=O)N[C@H](C(=O)N[C@@H](CC(N)=O)C(=O)N[C@@H](CC(C)C)C(=O)O)C(C)C)C(C)C (H-AQMWKVVNL-OH; N-terminus and C-terminus assumed) | 2.58 |  |  |  | 2/2 co-cultures |
| CC[C@H](C)[C@H](NC(=O)[C@H](Cc1ccc(O)cc1)NC(=O)[C@@H](NC(=O)[C@H](Cc1ccc(O)cc1)NC(=O)[C@H](CC(C)C)NC(=O)[C@@H](N)Cc1ccccc1)[C@@H](C)O)C(=O)N[C@@H](C)C(=O)N[C@@H](CCC(=O)O)C(=O)N[C@H](C(=O)O)C(C)C (H-FLYTYIAEV-OH; N-terminus and C-terminus assumed) | 1.34 |  |  |  | 2/2 co-cultures |
| CC[C@H](C)[C@H](NC(=O)[C@H](Cc1ccc(O)cc1)NC(=O)[C@@H](NC(=O)[C@H](Cc1ccc(O)cc1)NC(=O)[C@H](CC(C)C)NC(=O)[C@@H](N)Cc1ccccc1)[C@@H](C)O)C(=O)N[C@@H](C)C(=O)N[C@@H](CCCCN)C(=O)N[C@H](C(=O)O)C(C)C (H-FLYTYIAKV-OH; N-terminus and C-terminus assumed) | 2.76 |  |  | 1/4 co-cultures | 1/4 co-cultures |
